Test results reported in US6156700A, “3-(1,2-Benzisothiazol- and isoxazol-5-yl)-2,4(1H,3H)-pyrimidinedione or thione and 3-(1,2-benzisothiazol- and isoxazol-5-yl)-4(3H)-pyrimidinone or thione herbicidal agents” (American Cyanmid Company, priority 1998, dated 2000).

Assays:
[1] = tested on: Wheat, Winter, cv Riband, Triticum aestivum; test: Preemergence herbicidal evaluation, TRZAWR; type: in vivo; conditions: 0.2500 kg/ha
Method in brief: (§1)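 Values are 0–9 visual ratings of stand, vigor, malformation, size, chlorosis and overall appearance relative to a control, scored 4 to 5 weeks after treatment. Test compound in aqueous acetone was sprayed onto soil right after seeding, at rates equivalent to about 0.0156–0.500 kg per hectare.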

CYPSE Flatsedge = test: Postemergence weed control, flooded paddy (Table IV); type: in vivo, Cyperus serotinus; parameters: scale not given here
Method in brief: (§2)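 Rating scale scores taken 3–4 weeks post-treatment; compounds dosed in flood water (~0.0313–0.500 kg/ha) onto weeds 3–5 cm tall and 1.5–2.5 leaf rice under 1.5–3 cm standing water.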

[2] = tested on: Ragweed, Common, Ambrosia artemisifolia; test: Preemergence herbicidal evaluation, AMBEL; type: in vivo, L.; conditions: 0.2500 kg/ha
Method in brief: as §1

[3] = tested on: SAGPY Arrowhead (Pygmaea); test: Preemergence weed control, flooded paddy (Table III); type: in vivo, Sagittaria pygmaea; parameters: scale not given here
Procedure: (§3) Preemergence herbicidal activity under flooded paddy conditions is determined as follows: plant seeds or propagating organs are planted in the top 0.5 cm of silt loam soil in 32 oz. plastic containers with a diameter of 10.5 cm and no drainage holes. Water is added to these containers and maintained at 1.5 to 3 cm above the soil surface for the duration of the experiment. The test compounds are applied as aqueous/acetone mixtures 50/50 v/v pipetted directly into the flood water to give the equivalent of about 0.0313 to 0.500 kg/ha of active ingredient. The treated containers are placed on greenhouse benches and cared for in accordance with conventional greenhouse procedures. Three to four weeks after treatment, the test is terminated and each container is examined and herbicidal effect rated according to the rating system provided in Example 185. The compounds evaluated are reported by compound number given in Example 185.

[4] = tested on: Sicklepod, Cassia obtusifolia; test: Preemergence herbicidal evaluation, CASOB; type: in vivo, L.; conditions: 0.2500 kg/ha
Method in brief: as §1

[5] = tested on: Morningglory Spp., Ipomoea Spp.; test: Preemergence herbicidal evaluation, IPOSS; type: in vivo; conditions: 0.2500 kg/ha
Excerpt: Results of herbicide evaluation are expressed on a rating scale (0-9). The scale is based upon a visual observation of plant stand, vigor, malformation, size, chlorosis and overall plant appearance as compared with a control.
The preemergence herbicidal activity of the test compounds of the present invention is exemplified by the following tests in which the seeds of a variety of monocotyledonous and dicotyledonous plants are separately mixed with potting soil and planted on top of approximately one inch of soil in separate pint cups. After planting, the cups are sprayed with the selected aqueous acetone solution containing test compound in sufficient quantity to provide the equivalent of about 0.0156 to 0.500 kg per hectare of test compound per cup. The treated cups are then placed on greenhouse benches, watered and cared for in accordance with conventional greenhouse procedures. From four to five weeks after treatment, the tests are terminated and each cup is examined and rated according to the rating system provided in Example 185.
The compounds evaluated are reported by compound number given in Example 185.

[6] = tested on: Rice, Tebonnet, Oryza sativa; test: Preemergence herbicidal evaluation, ORYSAT; type: in vivo, (L.) Tebonnet; conditions: 0.2500 kg/ha
Method in brief: as §1

[7] = tested on: Foxtail, Green, Setaria viridis; test: Postemergence herbicidal evaluation, SETVI; type: in vivo, (L.) Beau; conditions: 0.2500 kg/ha
Method in brief: (§4)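 Approximately two-week-old seedlings received a spray of active compound equivalent to about 0.0157–0.500 kg/ha. The carrier was acetone/water (50/50) with 0.5% TWEEN 20. Plants were kept on greenhouse benches and assessed 0–9 versus control after four to five weeks.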

ORYSAT Rice, Tebonnet = test: Tolerance of transplanted rice to post-transplant application (Table III); type: in vivo, Oryza sativa; parameters: scale not given here; conditions: crop tolerance
Procedure: The tolerance of transplanted rice to post-transplanted herbicide applications is determined as follows: two ten-day-old rice seedlings (cv. Tebonnet) are transplanted into silt loam soil in 32 oz. plastic containers with a diameter of 10.5 cm and no drainage holes. After transplanting, the containers are flooded and the water level is maintained at 1.5 to 3 cm above the soil surface. Three days after transplanting, the flooded soil surface of the containers is treated with the selected aqueous/acetone 50/50 v/v mixture containing the test compounds to provide the equivalent of about 0.0313 to 0.500 kg/ha of active ingredient. The treated containers are placed on greenhouse benches, watered such that the water level is maintained as stated above, and cared for in accordance with conventional greenhouse procedures. Three to four weeks after treatment, the test is terminated and each container is examined and herbicidal effect rated according to the rating system provided in Example 185. The compounds evaluated are reported by compound number given in Example 185.

[8] = tested on: Sicklepod, Cassia obtusifolia; test: Postemergence herbicidal evaluation, CASOB; type: in vivo, L.; conditions: 0.2500 kg/ha
Method in brief: as §4

[9] = tested on: ECHORC Watergrass (Calif.); test: Postemergence weed control, flooded paddy (Table IV); type: in vivo, Echinochloa oryzoides; parameters: scale not given here
Method in brief: as §2

[10] = tested on: Wheat, Winter, cv Riband, Triticum aestivum; test: Postemergence herbicidal evaluation, TRZAWR; type: in vivo; conditions: 0.2500 kg/ha
Method in brief: as §4

[11] = tested on: Rice, Tebonnet, Oryza sativa; test: Postemergence herbicidal evaluation, ORYSAT; type: in vivo, (L.) Tebonnet; conditions: 0.2500 kg/ha
Method in brief: as §4

CYPIR Rice Flatsedge = test: Postemergence weed control, flooded paddy (Table IV); type: in vivo, Cyperus iria; parameters: scale not given here
Method in brief: as §2

[12] = tested on: ECHORC Watergrass (Calif.); test: Preemergence weed control, flooded paddy (Table III); type: in vivo, Echinochloa oryzoides; parameters: scale not given here
Procedure: as §3

| Structure (SMILES) | herbicide rating (0-9) [1] | herbicidal effect rating (CYPSE Flatsedge; 0.1250 kg/ha) | herbicidal effect rating (CYPSE Flatsedge; 0.2500 kg/ha) | herbicidal effect rating (CYPSE Flatsedge; 0.5000 kg/ha) | herbicide rating (0-9) [2] | herbicidal effect rating ([3]; 0.0313 kg/ha) | herbicidal effect rating ([3]; 0.0625 kg/ha) | herbicidal effect rating ([3]; 0.1250 kg/ha) | herbicidal effect rating ([3]; 0.2500 kg/ha) | herbicidal effect rating ([3]; 0.5000 kg/ha) | herbicide rating (0-9) [4] | herbicide rating (0-9) [5] | herbicide rating (0-9) [6] | herbicide rating (0-9) [7] | herbicidal effect rating (ORYSAT Rice, Tebonnet; 0.0313 kg/ha) | herbicidal effect rating (ORYSAT Rice, Tebonnet; 0.0625 kg/ha) | herbicidal effect rating (ORYSAT Rice, Tebonnet; 0.1250 kg/ha) | herbicidal effect rating (ORYSAT Rice, Tebonnet; 0.2500 kg/ha) | herbicidal effect rating (ORYSAT Rice, Tebonnet; 0.5000 kg/ha) | herbicide rating (0-9) [8] | other results |
| --- | --- | --- | --- | --- | --- | --- | --- | --- | --- | --- | --- | --- | --- | --- | --- | --- | --- | --- | --- | --- | --- |
| COC(=O)C(C)Oc1cc(C)ccc1-c1nsc2ccc(-n3c(=O)cc(C(F)(F)F)n(C)c3=O)cc12 (stereo not drawn) [Compound 9, Methyl 2-{{6-{5-[3,6-dihydro-3-methyl-4-(trifluoromethyl)-2,6-dioxo-1(2H)-pyrimidinyl]-1,2-benzisothiazol-3-yl}-m-tolyl}oxy}propionate] | 9.0 | 2.0 | 7.0 | 9.0 | 9.0 | 0.0 | 2.0 | 8.0 | 8.0 | 9.0 | 9.0 | 9.0 | 9.0 | 9.0 | 6.0 | 7.0 | 7.0 | 8.0 | 9.0 | 9.0 | herbicidal effect rating ([9]; 0.1250 kg/ha): 9.0; herbicidal effect rating ([9]; 0.2500 kg/ha): 9.0; herbicidal effect rating ([9]; 0.5000 kg/ha): 9.0; herbicide rating (0-9) [10]: 9.0; herbicide rating (0-9) [11]: 9.0; herbicidal effect rating (CYPIR Rice Flatsedge; 0.1250 kg/ha): 9.0; herbicidal effect rating (CYPIR Rice Flatsedge; 0.2500 kg/ha): 9.0; herbicidal effect rating (CYPIR Rice Flatsedge; 0.5000 kg/ha): 9.0; herbicidal effect rating ([12]; 0.0313 kg/ha): 9.0; herbicidal effect rating ([12]; 0.0625 kg/ha): 9.0; herbicidal effect rating ([12]; 0.1250 kg/ha): 9.0; herbicidal effect rating ([12]; 0.2500 kg/ha): 9.0; herbicidal effect rating ([12]; 0.5000 kg/ha): 9.0 |
| COc1cc(C)ccc1-c1nsc2ccc(-n3c(=O)cc(C(F)(F)F)n(C)c3=O)cc12 [Compound 7, 3-[3-(2-Methoxy-p-tolyl)-1,2-benzisothiazol-5-yl]-1-methyl-6-(trifluoromethyl)-2,4(1H,3H)-pyrimidinedione] | 6.0 | 9.0 | 9.0 | 8.0 | 9.0 | 6.0 | 8.0 | 9.0 | 9.0 | 9.0 | 9.0 | 9.0 | 8.0 | 9.0 | 6.0 | 8.0 | 7.0 | 7.0 | 9.0 | 9.0 | herbicidal effect rating ([9]; 0.1250 kg/ha): 9.0; herbicidal effect rating ([9]; 0.2500 kg/ha): 9.0; herbicidal effect rating ([9]; 0.5000 kg/ha): 9.0; herbicide rating (0-9) [10]: 7.0; herbicide rating (0-9) [11]: 6.5; herbicidal effect rating (CYPIR Rice Flatsedge; 0.1250 kg/ha): 9.0; herbicidal effect rating (CYPIR Rice Flatsedge; 0.2500 kg/ha): 9.0; herbicidal effect rating (CYPIR Rice Flatsedge; 0.5000 kg/ha): 9.0; herbicidal effect rating ([12]; 0.0313 kg/ha): 9.0; herbicidal effect rating ([12]; 0.0625 kg/ha): 9.0; herbicidal effect rating ([12]; 0.1250 kg/ha): 9.0; herbicidal effect rating ([12]; 0.2500 kg/ha): 9.0; herbicidal effect rating ([12]; 0.5000 kg/ha): 9.0 |
